How the values were obtained:
osteoclast precursors = assay: Differentiation test of osteoclasts (RANKL/M-CSF induced, TRAP staining); assay type: cell-based, Wistar rats; details: for effect of ICI 182,780 on the inhibition of osteoclast formation: 1 nM ICI 182,780 (antagonist of estrogen receptors), result in words
Procedure: Bone marrow was taken out from the femurs and tibiae of Wistar rats, and bone marrow cavities were washed with a α-minimum essential medium (Hyclone, Logan, Utah, USA) comprising a 20 mmol HEPES buffer solution, 10 vol % heat-inactivated fetal bovine serum, 2 mmol glutamine, 100 U/ml penicillin, and 100 µg/ml streptomycin. After 24 hours, inadhesive hematopoietic cells that were washed were collected, and were used as osteoclast precursors.
The aforesaid precursor cells were incubated in 24-wells culture plates with a density of 1×10^6 cells/well, and the culture plates comprised soluble human recombinant RANKL (50 ng/ml, PeproTech EC, London, UK) and M-CSF (20 ng/ml, PeproTech EC). Under the induction of M-CSF and RANKL, the precursor cells may differentiate into osteoclasts.
Then, various concentrations of the Flemingia macrophylla extract or Lespedeza flavanone A were added into the culture plates, and culture medium was replaced once every 3 days. On the ninth day, osteoclasts were stained with a TRAP staining kit, and the formation of osteoclasts was observed. The cells were then fixed with 10 vol % formaldehyde (in a phosphate buffer solution) for three minutes, and were stained with Naphthol AS-Mx phosphate and a tartaric acid solution at 37° C. for 1 hour. TRAP-positive multinucleated osteoclasts with more than three nuclei were regarded as osteoclasts (see Asagiri et al., The molecular understanding of osteoclast differentiation, Bone, 2007, 40: 251-64, which is entirely incorporated hereinto by reference).
To clarify the mechanism of Lespedeza flavanone A, an experiment was carried out with 1 nM ICI 182,780 (an antagonist of estrogen receptors) (see Howell et al., ICI 182,780 (Faslodex): development of a novel, “pure” antiestrogen, Cancer, 2000, 89: 817-825, which is entirely incorporated hereinto by reference), and influence of ICI 182,780 on the formation of osteoclasts was observed, and 10 nM 17β-estradiol was used for comparison.

OVX rats [1] = assay: Weight ratio of bone ash and calcium content of fifth vertebra; assay type: in vivo, Wistar rats; details: bone ash, per bone volume, oral, alendronate 2.5 mg/kg-body weight per day, 13 weeks
Procedure: (§1) Female Wistar rats (BioLASCO, Taipei, Taiwan) were used in the following experiments. In an experiment group, the rats were anesthetized with 40 mg/kg-body weight of pentobarbital sodium, and ovaries in both sides of the dorsum of the rats were removed to induce osteoporosis, and a decrease in estrogen of the postmenopausal female rats was observed. The rats of which ovaries were removed (i.e., ovariectomized rat) are represented as “OVX rats” hereinafter. In the control group (i.e., a sham group), the skin and muscle on the ovary positions at both sides of the dorsum of the rats were incised and then sutured, while the ovaries were not removed.
(§2) After one week from the surgery, the control group was administrated water orally every day. […] During the administration, the body weight of each rat was measured once a week until the last day of the administration. Distilled water was added into the extract to form a suspension, and the rats were administrated orally with 1 ml/100 g-body weight of the suspension.
The fifth sections of the vertebrae of the rats in Example 3 were dissected in an ethanol bath and dried at 100° C. overnight, and the dry weight of the vertebrae was measured. […] After the cremation, bone ash was collected, and the weight ratio of the bone ash (represented as the percentage of the dry weight of the vertebrae) was measured. […]

OVX rats [2] = assay: Density and content of minerals in tibiae (dual-energy X-ray absorptiometer); assay type: in vivo, Wistar rats; details: oral, alendronate 2.5 mg/kg-body weight per day, 13 weeks
Source text: Female Wistar rats (BioLASCO, Taipei, Taiwan) were used in the following experiments. […] The rats of which ovaries were removed (i.e., ovariectomized rat) are represented as “OVX rats” hereinafter. In the control group (i.e., a sham group), the skin and muscle on the ovary positions at both sides of the dorsum of the rats were incised and then sutured, while the ovaries were not removed.

OVX rats [3] = assay: Tissue analysis of tibiae (H&E, TRAP staining); assay type: in vivo, Wistar rats; details: oral, alendronate 2.5 mg/kg-body weight per day, 13 weeks
Procedure: as §1, §2
The left tibiae of the rats in Example 3 were taken and fixed with 4 vol % metaformaldehyde (in a phosphate buffer solution, PBS, pH 7.4) for 48 hours, and calcium was removed in a solution (pH 7.4) of 10 wt % EDTA (ethylenediamine tetraacetic acid) at 4° C. for 4 weeks. After calcium was removed, the bones were cut to generate a cross-section, and tissue staining was carried out with hematoxylin and eosin. […] The microscope images were analyzed with a color image analysis system (Image-Pro Plus version 5.1, Media Cybernetics, Maryland, USA), and the volume of trabecular bones and the thickness of […] of metaphysis of the rats were measured. […]
In another aspect, the above cross-section was stained with a TRAP (tartrate-resistant acid phosphatase) kit (Sigma-Aldrich, St. Louis, Mo., USA), and the number of osteoclasts was measured (see Cole et al., Tartrate-resistant acid phosphatase in bone and cartilage following decalcification and cold-embedding in plastic. J Histochem Cyrochem, 1987: 35, 203-6, which is entirely incorporated hereinto by reference).

OVX rats [4] = assay: Biochemical values of blood and urine (ALP, calcium, DPD); assay type: in vivo, Wistar rats; details: oral, alendronate 2.5 mg/kg-body weight per day, 13 weeks
Procedure: as §1, §2
The activity of ALP (alkaline phosphatase) and the content of calcium and creatinine in the blood and urine of the rats were measured with a clinical trial kit (Roche Diagnostics, Mannheim, Germany) and a spectrophotometric analyzer (Cobas Mira Plus, Roche, Rotkreuz, Switzerland), and the calcium content in the urine and blood of the rats was also measured with a method using o-cresolphthalein complexone (Randox, UK). ALP is a bio-indicator or molecular marker of an early activation stage of preosteoblasts, and based on ALP activity, the activation situation of preosteoblasts can be observed. The calcium content in the urine is represented as “mg/mmol creatinine in the urine.”
Moreover, the content of deoxypyridinoline (DPD) in the urine was measured with ELISA (enzyme linked immunosorbent assay) (an ELISA kit is purchased from Metra, San Diego, Calif., USA), and is represented as “[…] creatinine in the urine.” The results are shown in Table 5. […]

OVX rats [5] = assay: Body weight and vagina weight of ovariectomized rats after 13 weeks of oral administration; assay type: in vivo, Wistar rats; details: alendronate 2.5 mg/kg-body weight per day
Procedure: as §1, §2
After the end of the administration in Example 2, the rats were anesthetized with a high dosage of pentobarbital sodium (65 mg/kg-body weight) and were sacrificed. Blood samples of the rats were then collected, and tibiae and vertebrae of the rats were dissected, and vaginas were taken out from the rats and the weight of the vaginas was measured.

`C[C@]12CC[C@@H]3c4ccc(O)cc4CC[C@H]3[C@@H]1CC[C@@H]2O` [17β-estradiol] was tested, and the “effect of ICI 182,780 on the inhibition of osteoclast formation” value (osteoclast precursors) was “clearly inhibited the inhibition effect”, the “the percentage of osteoclast formation” value (osteoclast precursors; 10.0 nM with ICI 182,780 (1 nM), day 9) was 83.0 ± 13.2 % and the “the percentage of osteoclast formation” value (osteoclast precursors; 10.0 nM, day 9, control = 100) was 57.7 ± 8.1 %.
`COc1ccc([C@@H]2CC(=O)c3c(O)c(CC=C(C)C)c(O)c(CC=C(C)C)c3O2)c(O)c1` [LDF-A, 5,7,2-trihydroxy-6,8-di-r,r-dimethylallyl-4-methoxyflavanone] was tested, and the “effect of ICI 182,780 on the inhibition of osteoclast formation” value (osteoclast precursors) was “did not inhibit the inhibition effect”, the “the percentage of osteoclast formation” value (osteoclast precursors; 0.1 μM with ICI 182,780 (1 nM), day 9) was 65.0 ± 11.5% and the “the percentage of osteoclast formation” value (osteoclast precursors; 0.1 μM, day 9, control = 100) was 70.7 ± 9.5 %. The “the percentage of osteoclast formation” value (osteoclast precursors; 1.0 μM with ICI 182,780 (1 nM), day 9) was 49.0 ± 6.2%, the “the percentage of osteoclast formation” value (osteoclast precursors; 1.0 μM, day 9, control = 100) was 60.0 ± 5.2 % and the “the percentage of osteoclast formation” value (osteoclast precursors; 10.0 μM with ICI 182,780 (1 nM), day 9) was 26.0 ± 8.9%. For the same molecule, the “the percentage of osteoclast formation” value (osteoclast precursors; 10.0 μM, day 9, control = 100) was 27.0 ± 2.6 %.
`NCCCC(O)(P(=O)(O)O)P(=O)(O)O` [alendronate] was tested, and the calcium content (OVX rats [1]) was 206.1 ± 24.2 mg/mL, the mineral content (OVX rats [2]) was 0.38 ± 0.01 g and the osteoclast number/bone surface (OVX rats [3]; TRAP staining, tibia) was 2.7 ± 0.4 mm. For the same molecule, the “thickness of dermal bones” value (OVX rats [3]; tibia metaphysis) was 215.0 ± 10.2 μm, the “trabecular bone volume/tissue volume” value (OVX rats [3]; tibia metaphysis) was 36.1 ± 1.1 % and the “DPD content in urine” value (OVX rats [4]; ELISA) was 281.2 ± 52.3 mg/mmol creatinine. The ALP (OVX rats [4]; blood serum) was 163.5 ± 24.0 U/L, the “calcium content in urine” value (OVX rats [4]) was 45.2 ± 14.8 mg/mmol creatinine and the “average body weight after 13 weeks from the surgery” value (OVX rats [5]) was 377.8 ± 36.5 g. It also gave an average vagina weight (OVX rats [5]) of 0.18 ± 0.01 g.

— patent US20110082197A1, “Method for inhibiting formation and/or activation of osteoclasts using flemingia macrophylla extract or lespedeza flavanone A” (CHINA MEDICAL UNIVERSITY, priority 2009, published 2011)
